Measurements from publication PMC3329717 (Journal of Medicinal Chemistry, 2012).

Legend:
WEEV replicon [1] = test system: WEEV replicon
WEEV replicon [2] = test: microbe, parasite or virus in culture; settings: Western equine encephalitis virus, BSR-T7, read-out: IC50, inhibition of luciferase expression in the WEEV replicon assay
WEEV [3] = assay type: cell-based, western equine encephalitis virus
NSV [4] = assay type: cell-based, neuroadapted Sindbis virus
Mouse liver microsome = settings: Balb-C, liver microsomes, pH 7.5
[5] = Parallel Artificial Membrane Permeability Assay; settings: PAMPA
WEEV [6] = assay type: cell-based, western equine encephalitis virus; remark: listed apart in the source
NSV [7] = assay type: cell-based, neuroadapted Sindbis virus; remark: listed apart in the source
NSV [8] = test system: NSV; parameters: species or system mice; settings: mouse, in vivo
NSV [9] = test system: NSV; parameters: species or system mice; settings: mouse, in vivo; remark: listed apart in the source
NSV [10] = test system: NSV; parameters: species or system mice; settings: mouse, in vivo; remark: listed apart in the source
[11] = test system: vaccine strain of Venezuelan equine encephalitis virus (VEEV); settings: mouse, in vivo; cited from earlier work
wild-type VEEV = settings: in vivo; cited from earlier work

Compound	CC50/IC50 (therapeutic index) (WEEV replicon [1])	IC50 (WEEV replicon [2]) [µM]	other results
O=C(NCc1ccccc1)C1CCN(C(=O)c2cc3sccc3n2Cc2ccc(F)cc2)CC1 [Compound 5a, N-benzyl-1-(4-(4-fluorobenzyl)-4H-thieno[3,2-b]pyrrole-5-carbonyl)piperidine-4-carboxamide]	>3.9	25.4 ± 7.3	–
O=C(NCc1ccccc1)C1CCN(C(=O)c2cc3sccc3n2Cc2ccc(Cl)cc2)CC1 [Compound 5b, N-benzyl-1-(4-(4-chlorobenzyl)-4H-thieno[3,2-b]pyrrole-5-carbonyl)piperidine-4-carboxamide]	>9.9	10.1 ± 2.6	WEEV titers (virion production, plaque assay) (WEEV [3]): significantly reduced; NSV titers (virion production, plaque assay) (NSV [4]): significantly reduced; half-life at 1 µM (Mouse liver microsome): 1.7 ± 1.7 min; Papp [5]: 251 ×10⁻⁶ cm/s
C[C@H](NC(=O)C1CCN(C(=O)c2cc3sccc3n2Cc2ccc(F)cc2)CC1)c1ccccc1 [Compound 5c, (S)-1-(4-(4-fluorobenzyl)-4H-thieno[3,2-b]pyrrole-5-carbonyl)-N-(1-phenylethyl)piperidine-4-carboxamide]	–	> 100	–
C[C@@H](NC(=O)C1CCN(C(=O)c2cc3sccc3n2Cc2ccc(F)cc2)CC1)c1ccccc1 [Compound 5d, (R)-1-(4-(4-fluorobenzyl)-4H-thieno[3,2-b]pyrrole-5-carbonyl)-N-(1-phenylethyl)piperidine-4-carboxamide]	11	8.3 ± 1.3	–
C[C@H](c1ccc(F)cc1)n1c(C(=O)N2CCC(C(=O)NCc3ccccc3)CC2)cc2sccc21 [Compound 5e, (R)-N-benzyl-1-(4-(1-(4-fluorophenyl)ethyl)-4H-thieno[3,2-b]pyrrole-5-carbonyl)piperidine-4-carboxamide]	>5.4	18.4 ± 4.7	–
C[C@@H](c1ccc(F)cc1)n1c(C(=O)N2CCC(C(=O)NCc3ccccc3)CC2)cc2sccc21 [Compound 5f, (S)-N-benzyl-1-(4-(1-(4-fluorophenyl)ethyl)-4H-thieno[3,2-b]pyrrole-5-carbonyl)piperidine-4-carboxamide]	–	> 100	–
O=C(NCc1ccccc1)C1CCN(C(=O)c2cc3ccccc3n2Cc2ccc(F)cc2)CC1 [Compound 9a, N-benzyl-1-(1-(4-fluorobenzyl)-1H-indole-2-carbonyl)piperidine-4-carboxamide]	>6.7	14.8 ± 5.8	–
O=C(NCc1ccccc1)C1CCN(C(=O)c2cc3ccccc3n2Cc2ccc(Cl)cc2)CC1 [Compound 9b, N-benzyl-1-(1-(4-chlorobenzyl)-1H-indole-2-carbonyl)piperidine-4-carboxamide]	>6.5	15.5 ± 5.6	WEEV titers (virion production, plaque assay) (WEEV [3]): significantly reduced; NSV titers (virion production, plaque assay) (NSV [4]): significantly reduced; half-life at 1 µM (Mouse liver microsome): 7.3 ± 3.9 min
O=C(NCc1ccccc1)C1CCCN(C(=O)c2cc3ccccc3n2Cc2ccc(Cl)cc2)C1 (stereo not drawn) [Compound 9c, N-benzyl-1-(1-(4-chlorobenzyl)-1H-indole-2-carbonyl)piperidine-3-carboxamide]	>3.3	30.6 ± 7.3	–
O=C(Nc1ccccc1)C1CCN(C(=O)c2cc3ccccc3n2Cc2ccc(Cl)cc2)CC1 [Compound 9d, 1-(1-(4-chlorobenzyl)-1H-indole-2-carbonyl)-N-phenylpiperidine-4-carboxamide]	–	> 50	–
O=C(NCCc1ccccc1)C1CCN(C(=O)c2cc3ccccc3n2Cc2ccc(Cl)cc2)CC1 [Compound 9e, 1-(1-(4-chlorobenzyl)-1H-indole-2-carbonyl)-N-phenethylpiperidine-4-carboxamide]	4.1	15.2 ± 9.3	–
Cc1ccc(CCNC(=O)C2CCN(C(=O)c3cc4ccccc4n3Cc3ccc(Cl)cc3)CC2)cc1 [Compound 9f, 1-(1-(4-chlorobenzyl)-1H-indole-2-carbonyl)-N-(4-methylphenethyl)piperidine-4-carboxamide]	14	5.5 ± 2.2	–
C[C@H](NC(=O)C1CCN(C(=O)c2cc3ccccc3n2Cc2ccc(Cl)cc2)CC1)c1ccccc1 [Compound 9g, (S)-1-(1-(4-chlorobenzyl)-1H-indole-2-carbonyl)-N-(1-phenylethyl)piperidine-4-carboxamide]	–	> 100	Increase in cell viability after WEEV infection (reduction in CPE) (WEEV [6]): unable to rescue virus-induced CPE; Increase in cell viability after NSV infection (reduction in CPE) (NSV [7]): unable to rescue virus-induced CPE; WEEV titers (virion production, plaque assay) (WEEV [3]): inactive; NSV titers (virion production, plaque assay) (NSV [4]): inactive
C[C@@H](NC(=O)C1CCN(C(=O)c2cc3ccccc3n2Cc2ccc(Cl)cc2)CC1)c1ccccc1 [Compound 9h, (R)-1-(1-(4-chlorobenzyl)-1H-indole-2-carbonyl)-N-(1-phenylethyl)piperidine-4-carboxamide]	14	6.5 ± 1.5	WEEV titers (virion production, plaque assay) (WEEV [3]): significantly reduced; NSV titers (virion production, plaque assay) (NSV [4]): significantly reduced; Development of severe hind limb paralysis (NSV [8]): conferred benefit against the development of severe hind limb paralysis; Pilot survival assays, dose comparison (NSV [8]): the higher concentration was more effective; Survival after lethal NSV infection (NSV [8]): significantly protected from lethal NSV infection; Viral titers in brain (NSV [9]): viral titers were lower; Viral titers in spinal cord (NSV [9]): A similar extent of viral inhibition was also observed; Neuronal injury in hippocampus (proportion of fluorojade-positive neurons) (NSV [10]): reduced neuronal injury; half-life at 1 µM (Mouse liver microsome): 31 ± 7.1 min
COc1ccc(CNC(=O)C2CCN(C(=O)c3cc4ccccc4n3Cc3ccc(Cl)cc3)CC2)cc1 [Compound 9i, 1-(1-(4-chlorobenzyl)-1H-indole-2-carbonyl)-N-(4-methoxybenzyl)piperidine-4-carboxamide]	–	> 50	–
O=C(NCc1cccc(Cl)c1)C1CCN(C(=O)c2cc3ccccc3n2Cc2ccc(Cl)cc2)CC1 [Compound 9j, N-(3-chlorobenzyl)-1-(1-(4-chlorobenzyl)-1H-indole-2-carbonyl)piperidine-4-carboxamide]	>6.5	15.3 ± 9	–
O=C(c1cc2ccccc2n1Cc1ccc(Cl)cc1)N1CCC(C(=O)N2CCCCC2)CC1 [Compound 9k, (1-(4-chlorobenzyl)-1H-indol-2-yl)(4-(piperidine-1-carbonyl)piperidin-1-yl)methanone]	5.6	9.2 ± 2.8	–
O=C(NCc1ccncc1)C1CCN(C(=O)c2cc3ccccc3n2Cc2ccc(Cl)cc2)CC1 [Compound 9l, 1-(1-(4-chlorobenzyl)-1H-indole-2-carbonyl)-N-(pyridin-4-ylmethyl)piperidine-4-carboxamide]	>14	6.8 ± 1.7	–
O=C(NCc1cccnc1)C1CCN(C(=O)c2cc3ccccc3n2Cc2ccc(Cl)cc2)CC1 [Compound 9m, 1-(1-(4-chlorobenzyl)-1H-indole-2-carbonyl)-N-(pyridin-3-ylmethyl)piperidine-4-carboxamide]	>8.7	11.4 ± 0.4	–
NC(=O)c1ncn([C@@H]2O[C@H](CO)[C@@H](O)[C@H]2O)n1 [Ribavirin, reference compound]	–	16	–
(−)-carbodine	–	–	Disease outcome [11]: improved outcome; Lowering of peak CNS viral titers [11]: half-log; Benefit after wild-type VEEV challenge (wild-type VEEV): no benefit
